Tests used:
Format in all cases: cell-based
S. dysenteriae = details: 15 minutes; bacteria alone 910,000 CFU; X8P 1/100 dilution; EDTA 50-25 μM
S. typhimurium = system: S. typhimurium
[1] = system: Influenza virus A/AA/6/60

Row | Compound | bacterial count after treatment (CFU) (S. dysenteriae) | bacterial count after treatment (CFU) (S. typhimurium) | inhibition of infectivity of influenza A virus [1] | reduction of influenza A infection of MDCK cells [1]
1 | O=C(O)CN(CCN(CC(=O)O)CC(=O)O)CC(=O)O [EDTA, ethylenediamine-tetraacetic acid] | 320,000 CFU | 790,000 CFU |  | 
2 | 4-(1,1,3,3-Tetramethylbutyl)phenvl-polyethylene glycol [TRITON X-100] |  |  | only partially inhibited | completely ineffective
